Experimental data published in patent US20240408085A1, “COMPOUND FOR DEGRADATION OF BCL-2 FAMILY PROTEINS AND MEDICAL APPLICATION THEREOF” (XIZANG HAISCO PHARMACEUTICAL CO., LTD., priority 2021, published 2024).

The compounds below were run against T1, BCL-xL proteins (Homo sapiens, UniProt Q07817) (assay: BCL-xL degradation activity in MOLT-4 cells (western blot, 16 h)). Settings: not given.
T1 construct: degradation effect on the BCL-xL proteins in MOLT-4 cells; host or cells: MOLT-4
Assay type: cell-based
Procedure: MOLT-4 cells are acute lymphoblastic leukemia cell lines in humans. The cells were purchased from ATCC. Culture conditions: RPMI-1640+10% FBS+1% penicillin-streptomycin solution. The cells were cultured in a 37° C., 5% CO2 incubator. The cells were plated in a 12-well plate, with 2×10^5 cells/well. After plating, compounds at different concentrations were added and cultured in a 37° C., 5% CO2 incubator for 16 h. After the completion of culture, the cells were harvested and RIPA lysis buffer (beyotime, Cat. P0013B) was added. The cells were lysed on ice for 15 minutes and centrifuged at 12000 rpm at 4° C. for 10 minutes. The supernatant protein samples were collected and the protein was quantified by using the BCA kit (Beyotime, Cat. P0009). Then the protein was diluted to 0.8 mg/mL. The expressions of BCL-xL (CST, Cat. 2764S), BCL-2 (CST, Cat. 15071S) and the internal reference β-actin (CST, Cat. 3700S) were detected using a fully automated western blot quantitative analyzer (Proteinsimple). The expression level of BCL-xL or BCL-2 relative to the internal reference was calculated by using Compass software, and the DC50 value was calculated by using GraphPad Prism 8.0 software according to formula (1), wherein the Proteinadministration denoted the relative expression level of BCL-xL or BCL-2 in administration groups at different doses, and the Proteinvehicle denoted the relative expression level of BCL-xL or BCL-2 in the vehicle control group.
Protein %=Proteinadministration/Proteinvehicle×100% formula (1)

T1 sequence (Q07817 whole entry): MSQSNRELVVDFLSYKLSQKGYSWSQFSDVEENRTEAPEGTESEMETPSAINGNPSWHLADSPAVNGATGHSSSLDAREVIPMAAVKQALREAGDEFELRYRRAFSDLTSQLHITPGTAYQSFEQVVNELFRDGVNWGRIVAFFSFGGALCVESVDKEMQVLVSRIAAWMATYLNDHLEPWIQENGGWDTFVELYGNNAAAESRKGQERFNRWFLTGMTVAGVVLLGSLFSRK

| SMILES | DC50 |
| --- | --- |
| Cc1ncsc1-c1ccc([C@H](C)NC(=O)[C@@H]2C[C@@H](O)CN2C(=O)[C@@H](NC(=O)CCCCCC(=O)N2C[C@H]3CN(CC[C@H](CSc4ccccc4)Nc4ccc(S(=O)(=O)NC(=O)c5ccc(N6CCN(CC7=C(c8ccc(Cl)cc8F)CCC(C)(C)C7)CC6)cc5)cc4S(=O)(=O)C(F)(F)F)C[C@H]3C2)C(C)(C)C)cc1 (relative stereo) [Compound 14, cis-(2S,4R)-1-((S)-2-(7-(5-((R)-3-((4-(N-(4-(4-((4′-chloro-2′-fluoro-4,4-dimethyl-3,4,5,6-tetrahydro-[1,1′-biphenyl]-2-yl)methyl)piperazin-1-yl)benzoyl)sulfamoyl)-2-((trifluoromethyl)sulfonyl)phenyl)amino)-4-(phenylthio)butyl)hexahydropyrrolo[3,4-c]pyrrol-2(1H)-yl)-7-oxoheptanamido)-3,3-dimethylbutanoyl)-4-hydroxy-N—((S)-1-(4-(4-methylthiazol-5-yl)phenyl)ethyl) pyrrolidine-2-carboxamide] | 0.0081 µM |

These compounds were tested on MOLT-4 cells (assay: Cell proliferation activity in MOLT-4 cells (72 h, cell viability luminescence)). Settings: Homo sapiens, read-out: IC50 for the inhibition of MOLT-4 cell proliferation.
Assay type: cell-based, human
Method in brief: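 Human acute lymphoblastic leukemia cells were seeded at 5×10^3 cells/well in RPMI-1640 with 10% FBS. They were treated with serially varied compound concentrations for 72 h at 37° C., 5% CO2. A luminescent viability reagent was used for read-out. IC50 was derived relative to vehicle control; maximum inhibition was the inhibition rate at the highest concentration.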

| SMILES | IC50 |
| --- | --- |
| Cc1ncsc1-c1ccc([C@H](C)NC(=O)[C@@H]2C[C@@H](O)CN2C(=O)[C@@H](NC(=O)CCCCCC(=O)N2CCN(CC[C@H](CSc3ccccc3)Nc3ccc(S(=O)(=O)NC(=O)c4ccc(N5CCN(CC6=C(c7ccc(Cl)cc7F)CCCCC6)CC5)cc4)cc3S(=O)(=O)C(F)(F)F)CC2)C(C)(C)C)cc1 [Compound 35, (2S,4R)-1-((S)-2-(7-(4-((R)-3-((4-(N-(4-(4-((2-(4-chloro-2-fluorophenyl)cyclohept-1-en-1-yl)methyl)piperazin-1-yl)benzoyl)sulfamoyl)-2-((trifluoromethyl)sulfonyl)phenyl)amino)-4-(phenylthio)butyl)piperazin-1-yl)-7-oxoheptanamido)-3,3-dimethylbutanoyl)-4-hydroxy-N—((S)-1-(4-(4-methylthiazol-5-yl)phenyl)ethyl)pyrrolidine-2-carboxamide] | < 0.5 µM |
| Cc1ncsc1-c1ccc([C@H](C)NC(=O)[C@@H]2C[C@@H](O)CN2C(=O)[C@@H](NC(=O)CCCCCCC(=O)N2C[C@@H]3C[C@H]2CN3CC[C@H](CSc2ccccc2)Nc2ccc(S(=O)(=O)NC(=O)c3ccc(N4CCN(CC5=C(c6ccc(Cl)cc6F)CCCCC5)CC4)cc3)cc2S(=O)(=O)C(F)(F)F)C(C)(C)C)cc1 [Compound 38, (2S,4R)-1-((S)-2-(8-((1S,4S)-5-((R)-3-((4-(N-(4-(4-((2-(4-chloro-2-fluorophenyl)cyclohept-1-en-1-yl)methyl)piperazin-1-yl)benzoyl)sulfamoyl)-2-((trifluoromethyl)sulfonyl)phenyl)amino)-4-(phenylthio)butyl)-2,5-diazabicyclo[2.2.1]heptan-2-yl)-8-oxooctanamido)-3,3-dimethylbutanoyl)-4-hydroxy-N—((S)-1-(4-(4-methylthiazol-5-yl)phenyl)ethyl)pyrrolidine-2-carboxamide] | < 0.5 µM |
| Cc1ncsc1-c1ccc([C@H](C)NC(=O)[C@@H]2C[C@@H](O)CN2C(=O)[C@@H](NC(=O)CCCCCCC(=O)N2CCN(CC[C@H](CSc3ccccc3)Nc3ccc(S(=O)(=O)NC(=O)c4ccc(N5CCN(CC6=C(c7ccc(Cl)cc7F)CCC(C)(C)C6)CC5)cc4)cc3S(=O)(=O)C(F)(F)F)CC2)C(C)(C)C)cc1 [Compound 24, (2S,4R)-1-((S)-2-(8-(4-((R)-3-((4-(N-(4-(4-((4′-chloro-2′-fluoro-4,4-dimethyl-3,4,5,6-tetrahydro-[1,1′-biphenyl]-2-yl)methyl)piperazin-1-yl)benzoyl)sulfamoyl)-2-((trifluoromethyl)sulfonyl)phenyl)amino)-4-(phenylthio)butyl)piperazin-1-yl)-8-oxooctanamido)-3,3-dimethylbutanoyl)-4-hydroxy-N—((S)-1-(4-(4-methylthiazol-5-yl)phenyl)ethyl)pyrrolidine-2-carboxamide] | < 0.5 µM |
| Cc1ncsc1-c1ccc([C@H](C)NC(=O)[C@@H]2C[C@@H](O)CN2C(=O)[C@@H](NC(=O)CCCCCC(=O)N2C[C@H]3CN(CC[C@H](CSc4ccccc4)Nc4ccc(S(=O)(=O)NC(=O)c5ccc(N6CCN(CC7=C(c8ccc(Cl)cc8)CCC8(CC8)C7)CC6)cc5)cc4S(=O)(=O)C(F)(F)F)C[C@H]3C2)C(C)(C)C)cc1 [Compound 18, cis-(2S,4R)-1-((S)-2-(7-(5-((R)-3-((4-(N-(4-(4-((6-(4-chlorophenyl)spiro[2.5]oct-5-en-5-yl)methyl)piperazin-1-yl)benzoyl)sulfamoyl)-2-((trifluoromethyl)sulfonyl)phenyl)amino)-4-(phenylthio)butyl)hexahydropyrrolo[3,4-c]pyrrol-2(1H)-yl)-7-oxoheptanamido)-3,3-dimethylbutanoyl)-4-hydroxy-N—((S)-1-(4-(4-methylthiazol-5-yl)phenyl)ethyl)pyrrolidine-2-carboxamide] | < 0.5 µM |
| Cc1ncsc1-c1ccc([C@H](C)NC(=O)[C@@H]2C[C@@H](O)CN2C(=O)[C@@H](NC(=O)CCCCCC(=O)N2CCN(CC[C@H](CSc3ccccc3)Nc3ccc(S(=O)(=O)NC(=O)c4ccc(N5CCN(CC6=C(c7ccc(Cl)cc7F)CCC(C)(C)C6)CC5)cc4)cc3S(=O)(=O)C(F)(F)F)CC2)C(C)(C)C)cc1 [Compound 12, (2S,4R)-1-((S)-2-(7-(4-((R)-3-((4-(N-(4-(4-((4′-chloro-2′-fluoro-4,4-dimethyl-3,4,5,6-tetrahydro-[1,1′-biphenyl]-2-yl)methyl)piperazin-1-yl)benzoyl)sulfamoyl)-2-((trifluoromethyl)sulfonyl)phenyl)amino)-4-(phenylthio)butyl)piperazin-1-yl)-7-oxoheptanamido)-3,3-dimethylbutanoyl)-4-hydroxy-N—((S)-1-(4-(4-methylthiazol-5-yl)phenyl)ethyl)pyrrolidine-2-carboxamide] | < 0.5 µM |
| Cc1ncsc1-c1ccc([C@H](C)NC(=O)[C@@H]2C[C@@H](O)CN2C(=O)[C@@H](NC(=O)CCCCCC(=O)N2CC3CC2CN3CC[C@H](CSc2ccccc2)Nc2ccc(S(=O)(=O)NC(=O)c3ccc(N4CCN(CC5=C(c6ccc(Cl)cc6)CCC(C)(C)C5)CC4)cc3)cc2S(=O)(=O)C(F)(F)F)C(C)(C)C)cc1 (stereo partly drawn) [Compound 2, (2S,4R)-1-((2S)-2-(7-(5-((R)-3-((4-(N-(4-(4-((4′-chloro-4,4-dimethyl-3,4,5,6-tetrahydro-[1,1′-biphenyl]-2-yl)methyl)piperazin-1-yl)benzoyl)sulfamoyl)-2-((trifluoromethyl)sulfonyl)phenyl)amino)-4-(phenylthio)butyl)-2,5-diazabicyclo[2.2.1]heptan-2-yl)-7-oxoheptanamido)-3,3-dimethylbutanoyl)-4-hydroxy-N—((S)-1-(4-(4-methylthiazol-5-yl)phenyl)ethyl)pyrrolidine-2-carboxamide] | < 0.5 µM |
| Cc1ncsc1-c1ccc([C@H](C)NC(=O)[C@@H]2C[C@@H](O)CN2C(=O)[C@@H](NC(=O)CCCCCC(=O)N2CCN(CC[C@H](CSc3ccccc3)Nc3ccc(S(=O)(=O)NC(=O)c4ccc(N5CCN(CC6=C(c7ccc(Cl)cc7)CCC(C)(C)C6)CC5)nc4)cc3S(=O)(=O)C(F)(F)F)CC2)C(C)(C)C)cc1 [Compound 7, 6-(4-((4′-chloro-4,4-dimethyl-3,4,5,6-tetrahydro-[1,1′-biphenyl]-2-yl)methyl)piperazin-1-yl)-N-((4-(((R)-4-(4-(7-(((S)-1-((2S,4R)-4-hydroxy-2-(((S)-1-(4-(4-methylthiazol-5-yl)phenyl)ethyl)carbamoyl)pyrrolidin-1-yl)-3,3-dimethyl-1-oxobutan-2-yl)amino)-7-oxoheptanoyl)piperazin-1-yl)-1-(phenylthio)butan-2-yl)amino)-3-((trifluoromethyl)sulfonyl)phenyl)sulfonyl)nicotinamide] | < 0.5 µM |

Same assay, conditions: read-out: IC50 for the inhibition of MOLT-4 cell proliferation

| SMILES | IC50 |
| --- | --- |
| Cc1ncsc1-c1ccc([C@H](C)NC(=O)[C@@H]2C[C@@H](O)CN2C(=O)[C@@H](NC(=O)CCCCCC(=O)N2C[C@H]3CN(CC[C@H](CSc4ccccc4)Nc4ccc(S(=O)(=O)NC(=O)c5ccc(N6CCN(CC7=C(c8ccc(Cl)cc8F)CCC(C)(C)C7)CC6)cc5)cc4S(=O)(=O)C(F)(F)F)C[C@H]3C2)C(C)(C)C)cc1 (relative stereo) [Compound 14, cis-(2S,4R)-1-((S)-2-(7-(5-((R)-3-((4-(N-(4-(4-((4′-chloro-2′-fluoro-4,4-dimethyl-3,4,5,6-tetrahydro-[1,1′-biphenyl]-2-yl)methyl)piperazin-1-yl)benzoyl)sulfamoyl)-2-((trifluoromethyl)sulfonyl)phenyl)amino)-4-(phenylthio)butyl)hexahydropyrrolo[3,4-c]pyrrol-2(1H)-yl)-7-oxoheptanamido)-3,3-dimethylbutanoyl)-4-hydroxy-N—((S)-1-(4-(4-methylthiazol-5-yl)phenyl)ethyl) pyrrolidine-2-carboxamide] | < 0.5 µM |
| Cc1ncsc1-c1ccc([C@H](C)NC(=O)[C@@H]2C[C@@H](O)CN2C(=O)[C@@H](NC(=O)CCCCCCC(=O)N2CCN(CC[C@H](CSc3ccccc3)Nc3ccc(S(=O)(=O)NC(=O)c4ccc(N5CCN(CC6=C(c7ccc(Cl)cc7F)CCC7(CC7)C6)CC5)cc4)cc3S(=O)(=O)C(F)(F)F)CC2)C(C)(C)C)cc1 [Compound 32, (2S,4R)-1-((S)-2-(8-(4-((R)-3-((4-(N-(4-(4-((6-(4-chloro-2-fluorophenyl)spiro[2.5]oct-5-en-5-yl)methyl)piperazin-1-yl)benzoyl)sulfamoyl)-2-((trifluoromethyl)sulfonyl)phenyl)amino)-4-(phenylthio)butyl)piperazin-1-yl)-8-oxoheptanamido)-3,3-dimethylbutanoyl)-4-hydroxy-N—((S)-1-(4-(4-methylthiazol-5-yl)phenyl)ethyl)pyrrolidine-2-carboxamide] | < 0.5 µM |
